Laboratory results: patent EP4467141A1, “PYRAZOLO-QUINOLINES AS SELECTIVE INHIBITORS OF GENOTOXIC STRESS-INDUCED IKK/NF- KB PATHWAYS FOR CANCER THERAPY” (Max-Delbrück-Centrum für Molekulare Medizin in der …, priority 2023, dated 2024)

Key:
Test in all cases: Kinase panel study
Format in all cases: biochemical
Conditions in all cases: read-out: Percentage of inhibition; for inhibition at 1 µM: 1000nM; for inhibition at 10 µM: 10000nM
STK22D (TSSK1) = target: T1, STK22D (TSSK1) (Homo sapiens, UniProt Q9BXA7)
T1 construct: purchased Thermo Fisher Scientific
T1 sequence (Q9BXA7 1-367): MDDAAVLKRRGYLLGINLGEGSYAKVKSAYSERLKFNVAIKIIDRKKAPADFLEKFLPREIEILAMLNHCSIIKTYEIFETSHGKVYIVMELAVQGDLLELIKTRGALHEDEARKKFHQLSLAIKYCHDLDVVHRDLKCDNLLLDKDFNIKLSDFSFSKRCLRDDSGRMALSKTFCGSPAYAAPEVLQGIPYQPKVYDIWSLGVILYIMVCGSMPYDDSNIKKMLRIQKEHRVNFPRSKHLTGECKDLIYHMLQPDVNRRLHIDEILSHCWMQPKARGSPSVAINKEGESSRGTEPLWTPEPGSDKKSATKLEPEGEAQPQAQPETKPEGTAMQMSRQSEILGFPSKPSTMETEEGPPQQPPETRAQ
Procedure, shortened: (§1)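 Compounds were tested in vitro against the kinase panel by a service lab. Assays followed standard ZLyte or Adapta protocols. Activity was recorded as % inhibition at 10 µM or 1 µM, with IC50 values where determined.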

CSNK2A1 (CK2 alpha 1) = target: T2, CSNK2A1 (CK2 alpha 1) (Homo sapiens, UniProt P68400)
T2 construct: purchased Thermo Fisher Scientific
Procedure, shortened: as §1

CHUK (IKK alpha) = target: T3, CHUK (IKK alpha) (Homo sapiens, UniProt O15111)
T3 construct: purchased Thermo Fisher Scientific
T3 sequence (O15111 1-745): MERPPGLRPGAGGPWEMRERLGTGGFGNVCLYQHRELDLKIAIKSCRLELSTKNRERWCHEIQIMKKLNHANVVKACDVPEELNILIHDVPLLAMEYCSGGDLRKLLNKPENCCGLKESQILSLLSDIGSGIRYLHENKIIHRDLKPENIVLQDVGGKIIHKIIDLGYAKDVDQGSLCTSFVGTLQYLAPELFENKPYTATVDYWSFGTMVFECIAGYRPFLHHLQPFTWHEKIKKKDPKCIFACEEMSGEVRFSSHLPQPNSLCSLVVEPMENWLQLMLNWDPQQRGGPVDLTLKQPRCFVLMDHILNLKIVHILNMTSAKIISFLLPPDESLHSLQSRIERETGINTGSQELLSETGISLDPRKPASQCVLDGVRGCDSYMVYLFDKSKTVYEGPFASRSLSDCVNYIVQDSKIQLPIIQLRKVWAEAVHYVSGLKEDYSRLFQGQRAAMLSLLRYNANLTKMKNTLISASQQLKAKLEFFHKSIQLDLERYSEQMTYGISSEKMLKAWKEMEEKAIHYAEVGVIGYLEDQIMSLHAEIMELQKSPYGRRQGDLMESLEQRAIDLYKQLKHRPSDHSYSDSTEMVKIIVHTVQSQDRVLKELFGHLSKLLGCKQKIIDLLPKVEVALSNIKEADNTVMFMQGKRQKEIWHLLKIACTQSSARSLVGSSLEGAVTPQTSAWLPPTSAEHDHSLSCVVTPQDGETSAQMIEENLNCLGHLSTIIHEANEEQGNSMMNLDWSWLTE
Procedure, shortened: as §1

ERBB2 (HER2) = target: T4, ERBB2 (HER2) (Homo sapiens, UniProt P04626)
T4 construct: purchased Thermo Fisher Scientific
Procedure, shortened: as §1

MAPK7 (ERK5) = target: T5, MAPK7 (ERK5) (Homo sapiens, UniProt Q13164)
T5 construct: purchased Thermo Fisher Scientific
Procedure, shortened: as §1

TBK1 = target: T6, TBK1 (Homo sapiens, UniProt Q9UHD2)
T6 construct: purchased Thermo Fisher Scientific
T6 sequence (Q9UHD2 1-729): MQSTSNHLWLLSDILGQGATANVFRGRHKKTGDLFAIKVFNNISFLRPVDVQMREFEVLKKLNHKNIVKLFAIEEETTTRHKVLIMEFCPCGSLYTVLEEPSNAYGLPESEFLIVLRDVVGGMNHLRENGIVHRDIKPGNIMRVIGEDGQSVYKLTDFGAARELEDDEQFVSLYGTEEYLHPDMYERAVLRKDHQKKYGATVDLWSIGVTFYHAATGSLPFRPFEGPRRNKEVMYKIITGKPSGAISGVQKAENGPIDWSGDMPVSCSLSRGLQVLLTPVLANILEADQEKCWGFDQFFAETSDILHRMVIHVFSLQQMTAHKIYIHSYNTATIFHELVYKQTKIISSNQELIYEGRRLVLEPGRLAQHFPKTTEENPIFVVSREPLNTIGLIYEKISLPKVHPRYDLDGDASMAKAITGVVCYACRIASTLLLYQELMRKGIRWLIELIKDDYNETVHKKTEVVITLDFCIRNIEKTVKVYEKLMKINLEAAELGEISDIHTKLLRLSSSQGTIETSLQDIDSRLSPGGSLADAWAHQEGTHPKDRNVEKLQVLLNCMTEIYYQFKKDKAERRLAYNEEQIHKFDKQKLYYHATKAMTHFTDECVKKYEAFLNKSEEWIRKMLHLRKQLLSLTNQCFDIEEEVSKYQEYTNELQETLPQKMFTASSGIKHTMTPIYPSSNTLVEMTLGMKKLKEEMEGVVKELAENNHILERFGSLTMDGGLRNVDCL
Procedure, shortened: as §1

T2 sequence (P68400 whole entry): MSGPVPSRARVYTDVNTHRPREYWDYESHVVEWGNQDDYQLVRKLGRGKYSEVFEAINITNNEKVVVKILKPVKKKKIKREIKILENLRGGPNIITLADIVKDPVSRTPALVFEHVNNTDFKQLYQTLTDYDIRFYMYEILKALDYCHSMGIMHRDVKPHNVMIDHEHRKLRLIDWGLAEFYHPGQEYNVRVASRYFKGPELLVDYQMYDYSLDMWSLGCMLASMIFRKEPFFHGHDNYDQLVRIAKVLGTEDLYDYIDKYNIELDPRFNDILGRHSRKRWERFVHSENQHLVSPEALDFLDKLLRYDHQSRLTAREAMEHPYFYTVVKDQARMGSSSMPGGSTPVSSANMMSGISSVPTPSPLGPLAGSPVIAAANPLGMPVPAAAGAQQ
T4 sequence (P04626 23-1255): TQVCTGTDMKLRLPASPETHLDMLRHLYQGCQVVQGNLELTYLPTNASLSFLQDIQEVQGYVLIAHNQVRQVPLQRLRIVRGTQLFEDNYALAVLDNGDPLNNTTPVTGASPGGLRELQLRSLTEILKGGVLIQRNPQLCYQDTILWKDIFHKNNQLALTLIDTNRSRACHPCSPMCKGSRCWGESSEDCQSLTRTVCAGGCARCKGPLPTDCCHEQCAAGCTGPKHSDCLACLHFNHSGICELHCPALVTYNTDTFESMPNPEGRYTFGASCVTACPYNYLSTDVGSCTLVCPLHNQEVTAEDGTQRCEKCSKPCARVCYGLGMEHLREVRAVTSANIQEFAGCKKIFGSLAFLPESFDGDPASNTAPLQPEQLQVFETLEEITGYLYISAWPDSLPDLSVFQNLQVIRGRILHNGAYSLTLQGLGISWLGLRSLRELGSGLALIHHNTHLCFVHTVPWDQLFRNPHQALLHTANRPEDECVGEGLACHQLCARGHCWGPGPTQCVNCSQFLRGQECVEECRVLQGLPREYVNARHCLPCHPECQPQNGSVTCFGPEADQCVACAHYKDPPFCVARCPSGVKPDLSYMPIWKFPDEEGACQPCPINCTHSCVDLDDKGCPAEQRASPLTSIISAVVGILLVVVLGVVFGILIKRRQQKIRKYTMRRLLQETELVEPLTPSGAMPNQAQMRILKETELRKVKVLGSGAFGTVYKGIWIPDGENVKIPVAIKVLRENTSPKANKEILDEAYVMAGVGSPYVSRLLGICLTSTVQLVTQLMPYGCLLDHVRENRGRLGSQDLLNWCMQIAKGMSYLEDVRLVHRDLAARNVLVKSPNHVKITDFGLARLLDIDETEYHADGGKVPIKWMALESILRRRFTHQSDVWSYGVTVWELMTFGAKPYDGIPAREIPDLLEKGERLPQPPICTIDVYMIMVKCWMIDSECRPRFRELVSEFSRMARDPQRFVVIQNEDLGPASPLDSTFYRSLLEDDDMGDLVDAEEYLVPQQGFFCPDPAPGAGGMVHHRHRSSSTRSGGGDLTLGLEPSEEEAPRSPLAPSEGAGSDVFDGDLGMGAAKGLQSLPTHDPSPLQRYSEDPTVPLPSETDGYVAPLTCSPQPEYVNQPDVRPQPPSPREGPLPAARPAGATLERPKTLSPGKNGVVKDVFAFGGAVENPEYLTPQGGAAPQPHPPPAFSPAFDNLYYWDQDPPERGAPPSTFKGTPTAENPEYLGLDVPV
T5 sequence (Q13164 whole entry): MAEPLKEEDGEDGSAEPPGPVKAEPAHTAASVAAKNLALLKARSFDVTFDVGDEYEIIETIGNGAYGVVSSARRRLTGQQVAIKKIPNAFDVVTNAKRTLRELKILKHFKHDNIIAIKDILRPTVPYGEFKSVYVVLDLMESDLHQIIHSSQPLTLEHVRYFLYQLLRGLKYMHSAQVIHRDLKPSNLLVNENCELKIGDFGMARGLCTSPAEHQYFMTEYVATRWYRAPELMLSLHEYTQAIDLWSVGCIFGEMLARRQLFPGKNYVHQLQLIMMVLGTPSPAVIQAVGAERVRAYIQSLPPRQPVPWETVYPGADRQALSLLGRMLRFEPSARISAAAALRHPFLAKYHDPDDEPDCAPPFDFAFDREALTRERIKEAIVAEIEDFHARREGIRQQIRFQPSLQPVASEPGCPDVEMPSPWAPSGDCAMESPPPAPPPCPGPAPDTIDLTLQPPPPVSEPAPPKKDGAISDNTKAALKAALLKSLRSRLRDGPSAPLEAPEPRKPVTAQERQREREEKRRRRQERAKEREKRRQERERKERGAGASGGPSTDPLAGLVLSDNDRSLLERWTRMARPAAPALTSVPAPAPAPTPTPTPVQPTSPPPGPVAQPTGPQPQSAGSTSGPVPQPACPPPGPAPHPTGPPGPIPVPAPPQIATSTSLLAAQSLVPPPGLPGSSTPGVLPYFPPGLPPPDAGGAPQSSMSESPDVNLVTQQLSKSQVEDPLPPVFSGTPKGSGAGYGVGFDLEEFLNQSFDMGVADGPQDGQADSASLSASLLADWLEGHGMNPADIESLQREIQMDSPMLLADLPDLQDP

Row | SMILES | inhibition at 1 µM (STK22D (TSSK1)) | inhibition at 10 µM (STK22D (TSSK1)) | inhibition at 1 µM (CSNK2A1 (CK2 alpha 1)) | inhibition at 10 µM (CSNK2A1 (CK2 alpha 1)) | inhibition at 1 µM (CHUK (IKK alpha)) | inhibition at 10 µM (CHUK (IKK alpha)) | inhibition at 1 µM (ERBB2 (HER2)) | inhibition at 10 µM (ERBB2 (HER2)) | inhibition at 1 µM (MAPK7 (ERK5)) | inhibition at 10 µM (MAPK7 (ERK5)) | inhibition at 1 µM (TBK1) | inhibition at 10 µM (TBK1)
1 | COc1ccc2c(c1OC)c(=O)n1c3ccc(O)cc3c3ccnc2c31 [MW01, 5-Hydroxy-10,11-dimethoxy-9H-benzo[c]indolo[3,2,1-ij][1,5]naphthyridin-9-one] | 11% | 22% | 9% | 18% | 19% | 21% | 2% | 4% | 9% | 1% | 8% | 17%
2 | COc1ccc2cc3c(N)nn(C(=O)c4cccc(N(C)C)c4)c3nc2c1 [MW05, (3-Amino-7-methoxypyrazolo[3,4-b]quinolin-1-yl)-[3-(dimethylamino)phenyl]methanone] | 2% | 5% | 9% | 5% | 7% | 18% | -5% | -19% | 2% | -7% | 11% | -8%
